Experimental data as given in PMC3576085 (The Journal of Biological Chemistry, 2012).

Biological target: T1, CBM65B (EcCel5A) ([Eubacterium] cellulosolvens, UniProt Q3LHN3)
T1 sequence (Q3LHN3 581-713): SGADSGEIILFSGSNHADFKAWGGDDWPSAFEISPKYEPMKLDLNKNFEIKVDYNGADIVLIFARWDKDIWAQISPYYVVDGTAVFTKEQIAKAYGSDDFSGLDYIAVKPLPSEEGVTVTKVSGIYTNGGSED
Assay: ITC
Format: binding
Settings: 50 mM Na-HEPES pH 7.5, 25 °C; n 1

Ka: 2.3 (±0.2) x 10^3
SMILES: OC[C@H]1O[C@@H](O[C@H]2[C@H](O)[C@@H](O)[C@H](O[C@H]3[C@H](O)[C@@H](O)[C@H](O[C@H]4[C@H](O)[C@@H](O)[C@H](O[C@H]5[C@H](O)[C@@H](O)[C@H](O[C@H]6[C@H](O)[C@@H](O)C(O)O[C@@H]6CO)O[C@@H]5CO)O[C@@H]4CO)O[C@@H]3CO)O[C@@H]2CO)[C@H](O)[C@@H](O)[C@@H]1O (stereo partly shown) [C6, cellohexaose]
